{"source": "BindingDB's records for doi:10.1016/s0960-894x(98)00670-2", "about": "(Vertex Pharmaceuticals, 1999)", "molecular_target": "T1, Gag-Pol polyprotein [489-587] (Human immunodeficiency virus 1, UniProt P04585)", "T1 construct": "489-587", "test": "ChEBML_157552", "protocol": "Compound was assayed for inhibition against HIV protease activity"}
{"smiles": "COc1ccc(S(=O)(=O)N(CC2CCCC2)C[C@@H](O)CN(CCc2ccccc2)C(=O)OCc2cccnc2)cc1", "note": "[{(S)-3-[Cyclopentylmethyl-(4-methoxy-benzenesulfonyl)-amino]-2-hydroxy-propyl}-phenethyl-carbamic acid pyridin-3-ylmethyl ester]", "values": [{"measurement": "Ki", "result": 17, "unit": "nM"}]}
